Like-named read-outs stand apart in the source and are kept apart here.
Legend:
Lewis Lung carcinoma = conditions: for Effect MST %T/C / MST Days / Survivors Day 5: Exp. #55; for Survivors Day 5: toxicity evaluation
[1] = tested on: Bacillus subtilis PCI-219; experiment: Paper disc-agar diffusion method
[2] = tested on: Walker 256 carcinosarcoma in ascitic form; conditions: for Effect MST %T/C / MST Days / Survivors Day 5 / Average Weight Change: Exp. #5501; for MST Days: Bu-2231 A and B as copper-free formate salts; for Survivors Day 5: toxicity evaluation; for Average Weight Change: recorded Day 5; for fold greater potency (vs bleomycin): Table II, copper-free formate salts;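 for all read-outs here: female SD rats bearing intraperitoneally implanted ascites tumor cells, treated ip once a day for 8 days beginning on Day 1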
[3] = mice, sc, up to a dose of 50 mg./kg.
Procedure: The acute toxicity of copper-free Bu-2231 A and B was determined in mice by a single subcutaneous injection. Groups of 3 mice were used for each dose level and the body weight was recorded for 16 days.

[4] = 0.5 mg/kg/day ip once daily for 9 days
[5] = 1 mg/kg/day ip once daily for 9 days
[6] = 2 mg/kg/day ip once daily for 9 days
[7] = 4 mg/kg/day ip once daily for 9 days
[8] = 8 mg/kg/day ip once daily for 9 days
[9] = 10 mcg/kg/day ip once daily for 8 days
[10] = 40 mcg/kg/day ip once daily for 8 days
[11] = 160 mcg/kg/day ip once daily for 8 days
[12] = 640 mcg/kg/day ip once daily for 8 days

| SMILES | Effect MST %T/C (Lewis Lung carcinoma; [4]) [%] | MST Days (Lewis Lung carcinoma; [4]) [days] | Survivors Day 5 (Lewis Lung carcinoma; 0.5 mg/kg/day) | Effect MST %T/C (Lewis Lung carcinoma; [5]) [%] | MST Days (Lewis Lung carcinoma; [5]) [days] | Survivors Day 5 (Lewis Lung carcinoma; 1 mg/kg/day) | Effect MST %T/C (Lewis Lung carcinoma; [6]) [%] | MST Days (Lewis Lung carcinoma; [6]) [days] | Survivors Day 5 (Lewis Lung carcinoma; 2 mg/kg/day) | Effect MST %T/C (Lewis Lung carcinoma; [7]) [%] | MST Days (Lewis Lung carcinoma; [7]) [days] | Survivors Day 5 (Lewis Lung carcinoma; 4 mg/kg/day) | Effect MST %T/C (Lewis Lung carcinoma; [8]) [%] | MST Days (Lewis Lung carcinoma; [8]) [days] | Survivors Day 5 (Lewis Lung carcinoma; 8 mg/kg/day) | solubility (ethanol) | solubility (methanol) | solubility (other organic solvents) | solubility (water) | activity against B. subtilis PCI-219 [1] | other results |
| --- | --- | --- | --- | --- | --- | --- | --- | --- | --- | --- | --- | --- | --- | --- | --- | --- | --- | --- | --- | --- | --- |
| Cc1c(N)nc([C@H](CC(N)=O)NC[C@H](N)C(N)=O)nc1C(=O)N[C@H](C(=O)N[C@H](C)[C@@H](O)CC(=O)N[C@H](C(=O)NC(O[C@@H]1O[C@@H](C)[C@@H](N)[C@@H](O)[C@H]1O)C(O)c1nc(-c2nc(C(=O)NCCCC(N)CC(=O)NCCCNCCCCN)cs2)cs1)[C@@H](C)O)[C@H](O[C@@H]1O[C@@H](CO)[C@@H](O)[C@H](O)[C@@H]1O[C@H]1O[C@H](CO)[C@@H](O)[C@H](OC(N)=O)[C@@H]1O)c1c[nH]cn1 (stereo partly shown) [Bu-2231 A] | 120 | 26.5 | 6/6 | 123 | 27.0 | 6/6 | 114 | 25.0 | 6/6 | 32 | 7.0 | 6/6 | 27 | 6.0 | 6/6 | slightly soluble | soluble | practically insoluble | soluble | active | activity against Lewis Lung Carcinoma (T/C >= 125 criterion) (Lewis Lung carcinoma; 1 mg./kg.): just below an active level; Effect MST %T/C [2, 9]: 129%; MST Days [2, 9]: 9.0 days; Survivors Day 5 ([2]; 10 mcg/kg/day): 6/6; Effect MST %T/C [2, 10]: 157%; MST Days [2, 10]: 11.0 days; Survivors Day 5 ([2]; 40 mcg/kg/day): 6/6; Effect MST %T/C [2, 11]: 179%; MST Days [2, 11]: 12.5 days; Average Weight Change ([2]; 160 mcg/kg/day): +28.8 g.; Survivors Day 5 ([2]; 160 mcg/kg/day): 6/6; Effect MST %T/C [2, 12]: 250%; MST Days [2, 12]: 17.5 days; Survivors Day 5 ([2]; 640 mcg/kg/day): 6/6; fold greater potency (vs bleomycin) [2]: 4 fold |
| Cc1c(N)nc([C@H](CC(N)=O)NC[C@@H](N)C(N)=O)nc1C(=O)N[C@H](C(=O)N[C@H](C)[C@@H](O)CC(=O)N[C@@H](C(=O)NC(O[C@@H]1O[C@@H](C)[C@@H](N)[C@@H](O)[C@H]1O)C(O)c1nc(-c2nc(C(=O)NCCCNCCCCN)cs2)cs1)[C@@H](C)O)C(O[C@@H]1O[C@@H](CO)[C@H](O)[C@@H](O)[C@@H]1O[C@H]1O[C@H](CO)[C@@H](O)[C@@H](OC(N)=O)[C@@H]1O)c1cnc[nH]1 (stereo partly shown) [Bu-2231 B] | 102 | 22.5 | 6/6 | 134 | 29.5 | 6/6 | 136 | 30.0 | 6/6 | 48 | 10.5 | 6/6 | 27 | 6.0 | 5/6 | slightly soluble | soluble | practically insoluble | soluble | active | death in acute toxicity test [3]: No death occurred; activity against Lewis Lung Carcinoma (T/C >= 125 criterion) (Lewis Lung carcinoma; doses of 2 and 1 mg./kg.): active; Effect MST %T/C [2, 9]: 114%; MST Days [2, 9]: 8.0 days; Average Weight Change ([2]; 10 mcg/kg/day): +36.5 g.; Survivors Day 5 ([2]; 10 mcg/kg/day): 6/6; Effect MST %T/C [2, 10]: 157%; MST Days [2, 10]: 11.0 days; Survivors Day 5 ([2]; 40 mcg/kg/day): 6/6; Effect MST %T/C [2, 11]: 186%; MST Days [2, 11]: 13.0 days; Average Weight Change ([2]; 160 mcg/kg/day): +36.5 g.; Survivors Day 5 ([2]; 160 mcg/kg/day): 6/6; Effect MST %T/C [2, 12]: 186%; MST Days [2, 12]: 13.0 days; Average Weight Change ([2]; 640 mcg/kg/day): +10.7 g.; Survivors Day 5 ([2]; 640 mcg/kg/day): 6/6; fold greater potency (vs bleomycin) [2]: 4 fold |
